From a compilation of properties of binary mixtures (doi:10.1016/j.jct.2017.07.022)

Assay: xn = mol fraction of the nth substance listed
Conditions: 100 kPa

CC(C)O + CC[n+]1ccccc1.N#C[N-]C#N
x1 = 1
Conditions	viscosity [mPa·s]
288.15 K	2.83
293.15 K	2.42
298.15 K	2.08
303.15 K	1.8
308.15 K	1.56
313.15 K	1.33
318.15 K	1.17

CCCO + CC[n+]1ccccc1.N#C[N-]C#N
x1 = 1
Conditions	viscosity [mPa·s]
293.15 K	2.22
298.15 K	1.97
303.15 K	1.75
308.15 K	1.56
313.15 K	1.36
318.15 K	1.23

CCO + CC[n+]1ccccc1.N#C[N-]C#N
x1 = 1
Conditions	viscosity [mPa·s]
293.15 K	1.17
298.15 K	1.07
303.15 K	0.975
308.15 K	0.89
313.15 K	0.815
318.15 K	0.747

CC[n+]1ccccc1.N#C[N-]C#N + CC(C)O
viscosity [mPa·s]
Conditions	x2 = 0	x2 = 0.1055	x2 = 0.1999	x2 = 0.2997	x2 = 0.4023	x2 = 0.499	x2 = 0.5998	x2 = 0.7006	x2 = 0.8007	x2 = 0.8997
288.15 K	25.9	21.3	18.3	–	12.3	10	8.04	6.15	4.78	3.75
293.15 K	22.1	–	15.6	12.9	10.7	8.68	7.02	5.39	4.18	3.28
298.15 K	18.9	15.6	13.4	11.2	–	7.61	6.19	4.77	3.7	2.89
303.15 K	16.4	13.5	11.6	9.83	8.17	6.72	–	4.24	3.29	2.55
308.15 K	14.3	11.7	10.1	8.69	7.24	6	4.91	–	2.95	–
313.15 K	–	10.3	8.9	7.72	6.47	5.38	–	–	–	2.03
318.15 K	11	9.08	7.9	6.92	5.82	4.85	–	–	2.41	1.83

CC[n+]1ccccc1.N#C[N-]C#N + CCO
viscosity [mPa·s]
Conditions	x2 = 0	x2 = 0.1008	x2 = 0.1974	x2 = 0.3008	x2 = 0.3994	x2 = 0.5058	x2 = 0.5994	x2 = 0.6996	x2 = 0.7999	x2 = 0.9011
288.15 K	–	–	16.8	13.4	10.5	7.99	6.13	4.66	3.05	2.24
293.15 K	22.1	–	14.4	11.7	9.23	7.07	5.46	4.22	2.78	2.02
298.15 K	–	15.4	–	–	8.19	6.31	4.91	3.85	–	1.86
303.15 K	16.4	13.3	10.9	9.23	7.34	5.69	4.47	3.49	2.31	–
308.15 K	14.3	11.5	9.58	8.28	6.61	–	4.08	3.19	2.12	1.55
313.15 K	12.5	10.1	8.51	7.45	–	–	–	–	1.94	1.42
318.15 K	11	–	7.62	6.74	–	4.31	3.44	2.68	1.79	1.31

CC[n+]1ccccc1.N#C[N-]C#N + CCCO
viscosity [mPa·s]
Conditions	x2 = 0	x2 = 0.1095	x2 = 0.1947	x2 = 0.3011	x2 = 0.4029	x2 = 0.5008	x2 = 0.6003	x2 = 0.702	x2 = 0.8012	x2 = 0.9
288.15 K	25.9	–	–	15.2	12	9.7	7.73	5.99	–	3.48
293.15 K	–	17.7	15.3	–	10.4	8.45	6.78	5.28	–	3.09
298.15 K	18.9	15.3	13.1	11.7	9.11	–	6	4.7	3.61	–
303.15 K	16.4	13.2	11.3	10.3	–	6.6	5.34	–	3.24	2.48
308.15 K	14.3	11.4	–	9.11	7.14	–	4.79	3.78	–	–
313.15 K	12.5	9.9	–	8.13	6.39	–	4.33	3.42	2.65	2.03
318.15 K	–	8.74	7.85	7.35	5.76	–	3.93	–	2.42	–
